Each structure is given as a SMILES string. Where a name gives a salt, the structure may show the parent alone. Read-outs that look alike come from different tables or passages of the source.

In experiment [1] the target is human Adenosine A1 receptor (Homo sapiens (Human), UniProt P30542). In words: Adenosine receptor TR-FRET binding assay (A1). The conditions noted are these: inhibition of binding of 100 nM CA200645, CHO cell membranes. The procedure, abridged: (§1)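 Competition binding measured by TR-FRET between terbium-labelled receptors (CHO membranes, human) and fluorescent XAC, CA200645, used at 30 nM for A2b and 100 nM elsewhere. Room temperature, 2 h. Reported as Ki (Cheng–Prusoff).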
(In general: Time-resolved FRET reads energy transfer from a long-lived donor to a nearby acceptor.)

The target in experiment [2] is human Adenosine A2a receptor (Homo sapiens (Human), UniProt P29274). In words: Adenosine receptor TR-FRET binding assay (A2a). The note with it: inhibition of binding of 100 nM CA200645, CHO cell membranes. The essentials:
as §1

Experiment [3] has as its target human Adenosine A2b receptor (Homo sapiens (Human), UniProt P29275). In words: Adenosine receptor TR-FRET binding assay (A2b). The procedure, abridged: as §1
The target in experiment [4] is human Adenosine A3 receptor (Homo sapiens (Human), UniProt P0DMS8). In words: Adenosine receptor TR-FRET binding assay (A3). The note with it: inhibition of binding of 100 nM CA200645, CHO cell membranes. The method, then: Biological Example 1—Adenosine Receptor Time-Resolved Fluorescence Resonance Energy Transfer (TRFRET) Binding Assay
All FRET binding experiments were conducted at room temperature in white 384-well plates, in assay binding buffer containing 1×LabMed (Cisbio, France), 100 μg/mL saponin, 1% DMSO and 0.02% pluronic acid. Binding of the fluorescently labelled Adenosine receptor antagonist XAC (CA200645, FRET acceptor) to terbium-labelled A1, A2a, A2b and A3 adenosine receptors (FRET donors) was detected by time-resolved FRET due to the close proximity of the donor and acceptor in a binding event. To investigate the ability of unlabelled test compounds to bind to Adenosine A1, A2a, A2b and A3 receptors, dose response curves were constructed that determined the ability of a range of concentrations to inhibit the binding of 30 nM CA200645 to the A2b receptor and 100 nM CA200645 to the A1, A2a, and A3 receptor.
Serial dilution (1:3 dilutions) of test compounds in neat DMSO and transfer of a 400 nL sample of test compound into the assay plate was carried out using the Mosquito (TTP Labtech, UK). The compound samples were incubated for 2 hours at room temperature with a fixed concentration of CA200645 defined for each receptor (see above) and CHO cell membranes containing the human Adenosine A1 (0.5 μg/well), A2a (0.3 μg/well), A2b (1 μg/well) or A3 (1 μg/well) receptor in 40 μL of assay buffer. Total and non-specific binding of CA200645 was determined in the absence and presence of 10 μM XAC, respectively. Following 2 hours incubation, the level of CA200645 binding was detected on a Pherastar FSX (BMG Labtech, Germany) using standard TR-FRET settings. The terbium donor was excited with three laser flashes at a wavelength of 337 nm, and donor and acceptor emission was detected at 620 nm and 665 nm wavelengths, respectively. FRET ratios were obtained by multiplying the acceptor/donor ratio value by 10,000. Specific binding was determined by subtracting the non-specific binding FRET ratio from the total binding FRET ratio. Compound IC50 curves were analysed using GraphPad Prism 7.0 (GraphPad, USA) and Ki affinity values were determined from the obtained IC50 values using the method of Cheng and Prusoff.

The mark [5] stands for this setting: TR-FRET, inhibition of binding of 30 nM CA200645, CHO cell membranes.

Chain of human Adenosine A3 receptor (P0DMS8 whole entry): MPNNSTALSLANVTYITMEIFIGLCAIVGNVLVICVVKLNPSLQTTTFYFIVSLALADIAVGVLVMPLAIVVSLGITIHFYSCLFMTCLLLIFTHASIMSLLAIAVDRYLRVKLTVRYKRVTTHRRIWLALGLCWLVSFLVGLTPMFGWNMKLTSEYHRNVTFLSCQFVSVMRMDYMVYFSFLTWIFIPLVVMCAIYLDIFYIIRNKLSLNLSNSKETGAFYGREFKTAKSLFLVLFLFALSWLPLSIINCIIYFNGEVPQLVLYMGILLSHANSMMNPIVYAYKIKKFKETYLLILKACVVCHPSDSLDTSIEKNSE
Chain of human Adenosine A2b receptor (P29275 whole entry): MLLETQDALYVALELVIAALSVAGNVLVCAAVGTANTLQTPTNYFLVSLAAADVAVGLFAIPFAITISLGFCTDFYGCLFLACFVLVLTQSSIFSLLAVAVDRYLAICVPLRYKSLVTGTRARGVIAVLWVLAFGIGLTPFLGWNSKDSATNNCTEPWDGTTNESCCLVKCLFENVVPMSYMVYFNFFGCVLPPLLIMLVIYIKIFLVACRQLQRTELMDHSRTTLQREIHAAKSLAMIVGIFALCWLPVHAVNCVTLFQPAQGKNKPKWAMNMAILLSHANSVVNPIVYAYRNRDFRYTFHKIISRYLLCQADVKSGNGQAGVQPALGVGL
Chain of human Adenosine A2a receptor (P29274 whole entry): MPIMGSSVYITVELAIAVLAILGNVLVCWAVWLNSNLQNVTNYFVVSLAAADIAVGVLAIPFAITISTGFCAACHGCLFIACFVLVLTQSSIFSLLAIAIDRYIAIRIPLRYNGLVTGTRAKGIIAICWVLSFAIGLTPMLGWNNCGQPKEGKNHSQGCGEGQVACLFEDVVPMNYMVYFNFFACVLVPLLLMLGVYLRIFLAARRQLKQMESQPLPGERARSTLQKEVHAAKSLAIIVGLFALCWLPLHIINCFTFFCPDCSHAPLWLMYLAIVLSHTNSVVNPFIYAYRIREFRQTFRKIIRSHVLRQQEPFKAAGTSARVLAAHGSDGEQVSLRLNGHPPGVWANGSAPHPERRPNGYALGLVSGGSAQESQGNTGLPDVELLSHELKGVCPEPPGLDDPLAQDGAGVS
Chain of human Adenosine A1 receptor (P30542 whole entry): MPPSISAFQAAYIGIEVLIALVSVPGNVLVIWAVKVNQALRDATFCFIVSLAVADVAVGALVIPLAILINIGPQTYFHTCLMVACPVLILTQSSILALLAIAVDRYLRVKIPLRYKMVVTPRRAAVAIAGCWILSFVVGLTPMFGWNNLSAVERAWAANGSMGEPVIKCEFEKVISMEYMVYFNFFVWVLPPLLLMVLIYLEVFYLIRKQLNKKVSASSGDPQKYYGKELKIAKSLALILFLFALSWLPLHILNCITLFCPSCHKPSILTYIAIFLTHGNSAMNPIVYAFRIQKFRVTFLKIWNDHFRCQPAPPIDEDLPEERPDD

The Ki is the dissociation constant of the complex between target and ligand, obtained from inhibition or displacement. In the case of `Cc1cc(-c2sc(NC(=O)N3CCN[C@H](C)C3)nc2-c2cccc(C#N)c2)cc(C(F)(F)F)n1` [Example 14, (3R)—N-[4-(3-Cyanophenyl)-5-[2-methyl-6-(trifluoromethyl)-4-pyridyl]thiazol-2-yl]-3-methyl-piperazine-1-carboxamide], the inhibition constant Ki in experiment [1] was 45 nM; in experiment [2], 2.71 nM; in experiment [3] (setting [5]), 7.4 nM; in experiment [4], 47 nM.
Regarding `Cc1cc(-c2sc(NC(=O)N3CCC4(CC3)CN(C)C(=O)N4)nc2-c2cccc(C#N)c2)cc(C)n1` [Example 6.103, N-[4-(3-Cyanophenyl)-5-(2,6-dimethyl-4-pyridyl)thiazol-2-yl]-3-methyl-2-oxo-1,3,8-triazaspiro[4.5]decane-8-carboxamide], the inhibitory constant (Ki) in experiment [1] worked out at 61 nM; in experiment [2], 0.68 nM; in experiment [3] (setting [5]) it was 1.7 nM; in experiment [4] it was 475 nM.
The matching figures for `Cc1cc(-c2sc(NC(=O)N3CCNC[C@@H]3C)nc2-c2cccc(C#N)c2)cc(C)n1` [Example 13.4, (2S)-N-[4-(3-Cyanophenyl)-5-(2,6-dimethyl-4-pyridyl)thiazol-2-yl]-2-methyl-piperazine-1-carboxamide]: 54 nM, 5.13 nM, 19.6 nM and 54 nM.
The like results for `COCC1(C#N)CCN(C(=O)Nc2nc(-c3cccc(C#N)c3)c(-c3cc(C)nc(C)c3)s2)CC1` [Example 4.6, 4-Cyano-N-[4-(3-cyanophenyl)-5-(2,6-dimethyl-4-pyridyl)thiazol-2-yl]-4-(methoxymethyl)piperidine-1-carboxamide] were, in that order, 41 nM, 0.18 nM, 1.2 nM and 170 nM.
The like results for `Cc1cc(-c2sc(NC(=O)N3CCC(C#N)CC3)nc2-c2cccc(C#N)c2)cc(CO)n1` [Example 9.6] were, in that order, 12 nM, 0.51 nM, 2.9 nM and 369 nM.
For the compound `Cc1cc(-c2sc(NC(=O)N3CCn4ccnc4C3)nc2-c2cccc(C#N)c2)cc(C)n1` [Example 6.27, N-[4-(3-Cyanophenyl)-5-(2,6-dimethyl-4-pyridyl)thiazol-2-yl]-6,8-dihydro-5H-imidazo[1,2-a]pyrazine-7-carboxamide], the inhibitory constant (Ki) in experiment [1] was found to be 45 nM; in experiment [2] it was 1.01 nM; in experiment [3] (setting [5]) it was 1.4 nM; in experiment [4] it was 151 nM.
The like results for `COc1cc(-c2sc(NC(=O)N3CCS(=N)(=O)CC3)nc2-c2cccc(C#N)c2)cc(C)n1` [Example 16, N-[4-(3-Cyanophenyl)-5-(2-methoxy-6-methyl-4-pyridyl)thiazol-2-yl]-1-imino-1-oxo-1,4-thiazinane-4-carboxamide] were, in that order, 55 nM, 2.71 nM, 2.4 nM and 334 nM.
The like results for `Cc1cc(-c2sc(NC(=O)N3CCOC[C@@H]3C)nc2-c2cccc(C#N)c2)cc(C)n1` [Example 6.86, (3S)-N-[4-(3-Cyanophenyl)-5-(2,6-dimethyl-4-pyridyl)thiazol-2-yl]-3-methyl-morpholine-4-carboxamide] were, in that order, 2 nM, 0.68 nM, 1.9 nM and 181 nM.
The matching figures for `Cc1cc(-c2sc(NC(=O)N3CC4CC(C3)N4)nc2-c2cccc(C#N)c2)cc(C)n1` [Example 13.7, N-[4-(3-Cyanophenyl)-5-(2,6-dimethyl-4-pyridyl)thiazol-2-yl]-3,6-diazabicyclo[3.1.1]heptane-3-carboxamide]: 174 nM, 7.46 nM, 13.7 nM and 256 nM.
Take `Cc1cc(-c2sc(NC(=O)N3CC[C@@H](C(=O)O)C3)nc2-c2cccc(C#N)c2)cc(C)n1` [Example 6.65, (3R)-1-[[4-(3-Cyanophenyl)-5-(2,6-dimethyl-4-pyridyl)thiazol-2-yl]carbamoyl]pyrrolidine-3-carboxylic acid]: the Ki was 185 nM in experiment [1], 45.6 nM in experiment [2], 17.3 nM in experiment [3] (setting [5]) and 295 nM in experiment [4].
The like results for `Cc1cc(-c2sc(NC(=O)N3CC[C@H]3C(C)(C)O)nc2-c2cccc(C#N)c2)cc(C)n1` [Example 6.82, (2S)-N-[4-(3-Cyanophenyl)-5-(2,6-dimethyl-4-pyridyl)thiazol-2-yl]-2-(1-hydroxy-1-methyl-ethyl)azetidine-1-carboxamide] were, in that order, 116 nM, 3.67 nM, 5.1 nM and 246 nM.
Turning to `Cc1cc(-c2sc(NC(=O)N3C[C@H]4OCCN(C)[C@H]4C3)nc2-c2cccc(C#N)c2)cc(C(F)F)n1` (racemic) [Example 6.106, rac-(4aS,7aR)-N-[4-(3-Cyanophenyl)-5-[2-(difluoromethyl)-6-methyl-4-pyridyl]thiazol-2-yl]-4-methyl-2,3,4a,5,7,7a-hexahydropyrrolo[3,4-b][1,4]oxazine-6-carboxamide], the inhibition constant Ki was determined as 139 nM in experiment [1], 1.07 nM in experiment [2], 4.5 nM in experiment [3] and 195 nM in experiment [4].
The matching figures for `Cc1cc(-c2sc(NC(=O)N3C[C@@H]4OCCN(C)[C@H]4C3)nc2-c2cccc(C#N)c2)cc(C(F)F)n1` (racemic) [Example 6.109, rac-(4aS,7aS)-N-[4-(3-Cyanophenyl)-5-[2-(difluoromethyl)-6-methyl-4-pyridyl]thiazol-2-yl]-4-methyl-2,3,4a,5,7,7a-hexahydropyrrolo[3,4-b][1,4]oxazine-6-carboxamide]: 471 nM, 10.8 nM, 45.5 nM and 298 nM.
As to `Cc1cc(-c2sc(NC(=O)N3CCC4(CCOC4)C3)nc2-c2cccc(C#N)c2)cc(C)n1` (stereo not drawn) [Example 6.80, N-[4-(3-Cyanophenyl)-5-(2,6-dimethyl-4-pyridyl)thiazol-2-yl]-2-oxa-7-azaspiro[4.4]nonane-7-carboxamide], the inhibition constant (Ki) is 130 nM in experiment [1], 0.8 nM in experiment [2], 2.4 nM in experiment [3] (setting [5]) and 450 nM in experiment [4].
The matching figures for `Cc1cc(-c2sc(NC(=O)N3CCN4C(=O)CN(C)C(=O)C4C3)nc2-c2cccc(C#N)c2)cc(C)n1` (stereo not drawn) [Example 6.39, N-[4-(3-Cyanophenyl)-5-(2,6-dimethyl-4-pyridyl)thiazol-2-yl]-8-methyl-6,9-dioxo-3,4,7,9a-tetrahydro-1H-pyrazino[1,2-a]pyrazine-2-carboxamide]: 383 nM, 10.1 nM, 39.6 nM and 389 nM.
The matching figures for `Cc1cc(-c2sc(NC(=O)N3CCN[C@H](C(F)(F)F)C3)nc2-c2cccc(C#N)c2)cc(C)n1` [Example 13.10, (3S)-N-[4-(3-Cyanophenyl)-5-(2,6-dimethyl-4-pyridyl)thiazol-2-yl]-3-(trifluoromethyl)piperazine-1-carboxamide]: 61 nM, 4.56 nM, 14.5 nM and 573 nM.
For `Cc1cc(-c2sc(NC(=O)N3CCNC[C@H]3C)nc2-c2cccc(C#N)c2)cc(C)n1` [Example 13.8, (2R)-N-[4-(3-Cyanophenyl)-5-(2,6-dimethyl-4-pyridyl)thiazol-2-yl]-2-methyl-piperazine-1-carboxamide], the inhibition constant (Ki) was 47 nM in experiment [1], 2.38 nM in experiment [2], 12.3 nM in experiment [3] (setting [5]) and 41 nM in experiment [4].
As for `Cc1cc(-c2sc(NC(=O)N3C[C@@H]4NCCO[C@@H]4C3)nc2-c2cccc(C#N)c2)cc(C(F)F)n1` (racemic) [Example 14.2, rac-(4aS,7aR)—N-[4-(3-Cyanophenyl)-5-[2-(difluoromethyl)-6-methyl-4-pyridyl]thiazol-2-yl]-3,4,4a,5,7,7a-hexahydro-2H-pyrrolo[3,4-b][1,4]oxazine-6-carboxamide 2,2,2-trifluoroacetic acid salt], the Ki turned out to be 183 nM in experiment [1], 2.09 nM in experiment [2], 8.3 nM in experiment [3] and 132 nM in experiment [4].

For the origin of these results see US20230293517A1, “ANTAGONIST COMPOUNDS” (AdoRx Therapeutics Limited, priority 2020, published 2023).
